For 38 molecules, IC50 results are on record in patent US11866431B2, “Bicyclic compounds” (Vivace Therapeutics, Inc., priority 2018, dated 2024).

The test system of the first experiment is 8XTBD luciferase reporter (YAP reporter) in HEK293T cells. In words: YAP Reporter Assay. The experiment is classed as cell-based. As to conditions: Homo sapiens, HEK-293T, 24 h, read-out: Firefly Luciferase IC50 (μM). An outline of the steps:
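Dual-luciferase read-out after 24 h compound exposure at 37° C, 5% CO2; IC50 and maximum inhibition given separately for 8XTBD-firefly and TK-renilla signals. Stable HEK293T reporter cells, 3×10^3/well, received 10-point 1:3 series starting 3 μM final, in quadruplicate.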
As to `CCOc1cc(-c2ccc(C(F)(F)F)cc2)c2ncc(C(=O)NC(C)C)cc2c1` [Compound 80, 6-ethoxy-N-isopropyl-8-(4-(trifluoromethyl)phenyl)quinoline-3-carboxamide], the IC50 was less than 0.1 µM.

Staying with this experiment, now noted: Homo sapiens, HEK-293T; HEK293T cells stably transfected with 8XTBD luciferase reporter and pRLTK; 24-hr incubation; top concentration 3 μM; read-out: Firefly Luciferase IC50.
With `[N-]=[N+]=NCCNC(=O)c1ccc2c(-c3ccc(C(F)(F)F)cc3)cccc2c1` [Compound 261, N-(2-azidoethyl)-5-(4-(trifluoromethyl)phenyl)-2-naphthamide], the concentration for half-maximal inhibition (IC50) was less than 0.1 µM.
Consider `O=C(N[C@H](CO)C1CNC1)c1ccc2c(-c3ccc(C(F)(F)F)cc3)cccc2c1` [Compound 130, N-[(1S)-1-(azetidin-3-yl)-2-hydroxy-ethyl]-5-[4-(trifluoromethyl)phenyl]naphthalene-2-carboxamide], for which the IC50 is 1 to 3 µM.
Take `CC(C)NC(=O)c1ccc2c(-c3ccc(C(F)(F)F)cc3)ccc(N(C)S(C)(=O)=O)c2c1` [Compound 34, N-isopropyl-8-(N-methylmethylsulfonamido)-5-(4-(trifluoromethyl)phenyl)-2-naphthamide]: the IC50 lay in the range of 1 to 3 µM.
As to `CCOc1cc(-c2ccc(C(F)(F)F)cc2)c2ncc(C(=O)O)cc2c1` [Compound 327, 6-ethoxy-8-(4-(trifluoromethyl)phenyl)quinoline-3-carboxylic Acid], the IC50 was less than 0.1 µM.
Take `C[C@@H](NC(=O)c1ccc2c(-c3ccc(C(F)(F)F)cc3)cccc2c1)c1ncc[nH]1` [Compound 242, (R)—N-(1-(1H-imidazol-2-yl)ethyl)-5-(4-(trifluoromethyl)phenyl)-2-naphthamide]: the IC50 lay in the range of 0.1 to 1 µM.
For `COC[C@@H](C)NC(=O)c1ccc2c(-c3ccc(C(F)(F)F)cc3)cccc2c1` [Compound 93, (R)—N-(1-methoxypropan-2-yl)-5-(4-(trifluoromethyl)phenyl)-2-naphthamide], the 50% inhibitory concentration (IC50) was less than 0.1 µM.
Take `Nc1cccc(CNC(=O)c2ccc3c(-c4ccc(C(F)(F)F)cc4)cccc3c2)c1` [Compound 235, N-(3-aminobenzyl)-5-(4-(trifluoromethyl)phenyl)-2-naphthamide]: the IC50 was less than 0.1 µM.
For the molecule `COc1cc(-c2ccc(C(F)(F)F)cc2)c2ncc(C(=O)N[C@@H](C)c3ccccn3)cc2c1` [Compound 108, 6-methoxy-N-[(1S)-1-(2-pyridyl)ethyl]-8-[4-(trifluoromethyl)phenyl]quinoline-3-carboxamide], the IC50 is less than 0.1 µM.
The same measure, in the same setting: the result for `COC[C@H](C)NC(=O)c1ccc2c(-c3ccc(C(F)(F)F)cc3)cccc2n1` [Compound 246, (S)—N-(1-Methoxypropan-2-yl)-5-(4-(trifluoromethyl)phenyl)quinoline-2-carboxamide] reads 0.1 to 1 µM.
For the molecule `O=C(NCc1cccc(F)n1)c1ccc2c(-c3ccc(C(F)(F)F)cc3)cccc2c1` [Compound 190, N-((6-fluoropyridin-2-yl)methyl)-5-(4-(trifluoromethyl)phenyl)-2-naphthamide], the IC50 was 0.1 to 1 µM.
For the molecule `C[C@H](CCN(C)C)NC(=O)c1ccc2c(-c3ccc(C(F)(F)F)cc3)cccc2c1` [Compound 313, N-[(1R)-3-(dimethylamino)-1-methyl-propyl]-5-[4-(trifluoromethyl)phenyl]naphthalene-2-carboxamide], the IC50 lay within 0.1 to 1 µM.
Take `CC(C)NC(=O)c1ccc2c(-c3ccc(C(F)(F)F)cc3)cccc2n1` [Compound 248, N-isopropyl-5-(4-(trifluoromethyl)phenyl)quinoline-2-carboxamide]: the IC50 was 0.1 to 1 µM.
Regarding `CC(=O)Nc1cccc(CNC(=O)c2ccc3c(-c4ccc(C(F)(F)F)cc4)cccc3c2)c1` [Compound 237, N-(3-acetamidobenzyl)-5-(4-(trifluoromethyl)phenyl)-2-naphthamide], the IC50 was less than 0.1 µM.
Take `C[C@@H](CN(C)C)NC(=O)c1ccc2c(-c3ccc(C(F)(F)F)cc3)cccc2c1` [Compound 64, (S)—N-(1-(dimethylamino)propan-2-yl)-5-(4-(trifluoromethyl)phenyl)-2-naphthamide]: the IC50 lay in the range of 1 to 3 µM.
Regarding `CC(=O)NCCOCCOCCNC(=O)c1ccc2c(-c3ccc(C(F)(F)F)cc3)cccc2c1` [Compound 40, N-(2-(2-(2-acetamidoethoxy)ethoxy)ethyl)-5-(4-(trifluoromethyl)phenyl)-2-naphthamide], the IC50 is less than 0.1 µM.
In the case of `C[C@H](CN1CCOCC1)NC(=O)c1ccc2c(-c3ccc(C(F)(F)F)cc3)cccc2c1` [Compound 70, (R)—N-(1-morpholinopropan-2-yl)-5-(4-(trifluoromethyl)phenyl)-2-naphthamide], the IC50 was in the range of 1 to 3 µM.
In the case of `O=C(NC1CC1)c1ccc2c(-c3ccc(C(F)(F)F)cc3)cccc2c1` [Compound 55, N-cyclopropyl-5-(4-(trifluoromethyl)phenyl)-2-naphthamide], the IC50 is less than 0.1 µM.
As to `N#C/C=C/CCCNC(=O)c1ccc2c(-c3ccc(C(F)(F)F)cc3)cccc2c1` [Compound 227, N-[(E)-5-cyanopent-4-enyl]-5-[4-(trifluoromethyl)phenyl]naphthalene-2-carboxamide], the IC50 was less than 0.1 µM.
As for `C[C@H](NC(=O)c1ccc2c(-c3ccc(C(F)(F)F)cc3)cccc2c1)c1cccc(N)n1` [Compound 128, (S)—N-(1-(6-aminopyridin-2-yl)ethyl)-5-(4-(trifluoromethyl)phenyl)-2-naphthamide], the IC50 lay in the range of 0.1 to 1 µM.
On to `CC(C)NC(=O)c1ccc2c(-c3ccc(C(F)(F)F)cc3)cn3ccnc3c2c1` [Compound 299, N-Isopropyl-6-(4-(trifluoromethyl)phenyl)imidazo[2,1-a]isoquinoline-9-carboxamide], for which the IC50 lay within 0.1 to 1 µM.
Consider `C[C@H](NC(=O)c1ccc2c(-c3ccc(C(F)(F)F)cc3)cccc2c1)c1nnnn1C` [Compound 280, (S)—N-(1-(1-methyl-1H-tetrazol-5-yl)ethyl)-5-(4-(trifluoromethyl)phenyl)-2-naphthamide], for which the IC50 was 1 to 3 µM.
On to `Cc1nsc(CNC(=O)c2ccc3c(-c4ccc(C(F)(F)F)cc4)cccc3c2)n1` [Compound 221, N-((3-methyl-1,2,4-thiadiazol-5-yl)methyl)-5-(4-(trifluoromethyl)phenyl)-2-naphthamide], for which the IC50 was less than 0.1 µM.
Take `COC[C@H](C)NC(=O)c1cnc2c(-c3ccc(C(F)(F)F)cc3)cccc2c1` [Compound 102, (S)—N-(1-methoxypropan-2-yl)-8-(4-(trifluoromethyl)phenyl)quinoline-3-carboxamide]: the IC50 is less than 0.1 µM.
`C[C@H](NC(=O)c1ccc2c(-c3ccc(C(F)(F)F)cc3)cccc2c1)C(N)=O` [Compound 259, (S)—N-(1-amino-1-oxopropan-2-yl)-5-(4-(trifluoromethyl)phenyl)-2-naphthamide]: the IC50 was 0.1 to 1 µM.
As to `O=C(O)c1cnc2c(-c3ccc(C(F)(F)F)cc3)cc(Cl)c(Cl)c2c1` [Compound 326, 5,6-dichloro-8-(4-(trifluoromethyl)phenyl)quinoline-3-carboxylic Acid], the concentration for half-maximal inhibition (IC50) was less than 0.1 µM.
Still for that read-out and setting: the result for `C[C@H](NC(=O)c1ccc2c(-c3ccc(C(F)(F)F)cc3)cccc2c1)C1COC1` [Compound 269, (S)—N-(1-(oxetan-3-yl)ethyl)-5-(4-(trifluoromethyl)phenyl)-2-naphthamide] reads less than 0.1 µM; that for `CN(C#N)CCNC(=O)c1ccc2c(-c3ccc(C(F)(F)F)cc3)cccc2c1` [Compound 125, N-(2-(N-methylcyanamido)ethyl)-5-(4-(trifluoromethyl)phenyl)-2-naphthamide], less than 0.1 µM.
Consider `C[C@H](NC(=O)c1cnc2c(-c3ccc(C(F)(F)F)cc3)cccc2c1)c1ccccn1` [Compound 103, (S)—N-(1-(pyridin-2-yl)ethyl)-8-(4-(trifluoromethyl)phenyl)quinoline-3-carboxamide], for which the IC50 was less than 0.1 µM.
As for `NS(=O)(=O)NC(=O)c1ccc2c(-c3ccc(C(F)(F)F)cc3)cccc2c1` [Compound 29, N-sulfamoyl-5-(4-(trifluoromethyl)phenyl)-2-naphthamide], the IC50 lay in the range of 0.1 to 1 µM.
Take `CC(C)NC(=O)c1ccc2c(-c3ccc(C(F)(F)F)cc3)ccnc2c1` [Compound 7, N-isopropyl-4-[4-(trifluoromethyl)phenyl]quinoline-7-carboxamide]: the IC50 lay within 0.1 to 1 µM.
Turning to `O=C(NC(CO)c1ccccn1)c1cnc2c(-c3ccc(C(F)(F)F)cc3)cccc2c1` (centres unmarked) [Compound 260, N-[2-hydroxy-1-(2-pyridyl)ethyl]-8-[4-(trifluoromethyl)phenyl]quinoline-3-carboxamide], the IC50 was less than 0.1 µM.
Regarding `CS(=O)(=O)NC(=O)c1ccc2c(-c3ccc(C(F)(F)F)cc3)cccc2c1` [Compound 2, N-(methylsulfonyl)-5-(4-(trifluoromethyl)phenyl)-2-naphthamide], the IC50 is less than 0.1 µM.
In the case of `O=C(NCC/C=C/COc1ccon1)c1ccc2c(-c3ccc(C(F)(F)F)cc3)cccc2c1` [Compound 181, N-[(E)-5-isoxazol-3-yloxypent-3-enyl]-5-[4-(trifluoromethyl)phenyl]naphthalene-2-carboxamide], the IC50 is less than 0.1 µM.
For the molecule `COC(=O)c1ccc2c(-c3ccc(C(F)(F)F)cc3)nccc2c1` [Compound 9, Methyl 1-[4-(trifluoromethyl)phenyl]isoquinoline-6-carboxylate], the half-maximal inhibitory concentration (IC50) is 0.1 to 1 µM.
`C[C@H](NC(=O)c1ccc2c(-c3ccc(C(F)(F)F)cc3)cccc2c1)c1cc(N(C)C)ccn1` [Compound 224, (S)—N-(1-(4-(dimethylamino)pyridin-2-yl)ethyl)-5-(4-(trifluoromethyl)phenyl)-2-naphthamide]: the IC50 was in the range of 1 to 3 µM.
As for `C[C@H](NC(=O)c1ccc2c(-c3ccc(C(F)(F)F)cc3)cccc2c1)c1cnccn1` [Compound 282, (S)—N-(1-(pyrazin-2-yl)ethyl)-5-(4-(trifluoromethyl)phenyl)-2-naphthamide], the concentration for half-maximal inhibition (IC50) was in the range of 0.1 to 1 µM.
Take `C[C@@H](NC(=O)c1ccc2c(-c3ccc(C(F)(F)F)cc3)cccc2c1)C1CN(C)C1` [Compound 153, N-[(1R)-1-(1-methylazetidin-3-yl)ethyl]-5-[4-(trifluoromethyl)phenyl]naphthalene-2-carboxamide]: the IC50 is 0.1 to 1 µM.
